Laboratory results as given in patent publication US20260262641A1 (priority 2023, published 2026).

Key:
Format in all cases: in vivo
[1] = system: ground pearl (Margarodes spp); assay: Field trial in kikuyu turf, control of ground pearl, Sydney (Example 2); conditions: for NDVI, Pre-spray: Pre-spray (baseline), kikuyu turf, Greenseeker; for Ground pearls/plot, Adults, Pre-spray / Ground pearls/plot, Eggs, Pre-spray / Ground pearls/plot, Adults, 56 DAA3 / Ground pearls/plot, Eggs, 56 DAA3 / NDVI, 56 DAA3: sc; for Ground pearls/plot, Adults, 56 DAA3 / Ground pearls/plot, Eggs, 56 DAA3: 200 g/ha; for Ground pearls/plot, Adults, 56 DAA3 / Ground pearls/plot, Eggs, 56 DAA3 / NDVI, 56 DAA3: 1344 h
Description: A field trial was conducted in kikuyu turf, to evaluate fenpyroximate for control of ground pearl (Margarodes spp). The trial was located at Sydney University, New South Wales (−33.888, 151.188), in an area with a known infestation of ground pearl.
All treatments were applied using a hand boom fitted with XR11004 nozzles, in a spray volume of 430 L/ha.
The ground pearl density by species was assessed by sampling 20 cores per plot and recording the number of eggs and adults, and Normalized Difference Vegetation Index (NDVI) was assessed 56 days after the third application using a Greenseeker.
(§1) All data was statistically analyzed using analysis of variance and Fisher's protected least significant different test (Fishers LSD). The level of significance for all tests was P<0.05.

[2] = system: ground pearl (Margarodes spp); assay: Field trial in kikuyu turf, control of ground pearl, Robina (Example 6); conditions: for Ground pearls/plot, Adults, Pre-spray / Ground pearls/plot, Eggs, Pre-spray: Pre-spray (baseline), 20 cores per plot; for density of ground pearl eggs and adults (in words) / turf vigor (in words): versus untreated, P<0.05
Description: A field trial was conducted in kikuyu turf, to evaluate fenpyroximate for control of ground pearl (Margarodes spp). The trial was located at Robina, Queensland (−28.069442, 153.401817), in an area with a known infestation of ground pearl.
All treatments were applied using a hand boom fitted with XC08 nozzles, in a spray volume of 443 L/ha.
The ground pearl density by species was assessed prior to the first application and again 21 days after the third application by sampling 20 cores per plot and recording the number of eggs and adults. Turf vigor was assessed on a 0 to 10 rating scale (0=dead; 10=best quality/color) prior to the first application and 42 days after the third application.
as §1

[3] = system: ground pearl (Margarodes spp); assay: as above; conditions: sc
[4] = versus untreated, P<0.05, with PE 6200

O=[N+]([O-])NC1=NCCN1Cc1ccc(Cl)nc1 [Kohinor 350 SC, Imidacloprid]
NDVI, Pre-spray [1]: 8.25
Ground pearls/plot, Adults, Pre-spray [1]: 10.5 a ground pearls/plot
Ground pearls/plot, Eggs, Pre-spray [1]: 9.0 a ground pearls/plot
Ground pearls/plot, Adults, 56 DAA3 [1]: 13.8 a ground pearls/plot
Ground pearls/plot, Eggs, 56 DAA3 [1]: 12.5 cd ground pearls/plot
NDVI, 56 DAA3 [1]: 7.8
density of ground pearl eggs (in words) [1, 4]: did not reduce
Turf vigor (0-10), Pre-spray [2]: 5.1
Ground pearls/plot, Adults, Pre-spray [2]: 5.7 ground pearls/plot
Ground pearls/plot, Eggs, Pre-spray [2]: 2.0 ground pearls/plot
density of ground pearl eggs and adults (in words) [2]: significantly reduced
turf vigor (in words) [2]: significantly improved
Turf vigor (0-10), 56 DAA3 [3]: 5.9 a

CN1COCN(Cc2cnc(Cl)s2)/C1=N\[N+](=O)[O-] [Meridian, Thiamethoxam]
NDVI, Pre-spray [1]: 7.5
Ground pearls/plot, Adults, Pre-spray [1]: 15.5 a ground pearls/plot
Ground pearls/plot, Eggs, Pre-spray [1]: 7.8 a ground pearls/plot
Ground pearls/plot, Adults, 56 DAA3 [1]: 9.8 a ground pearls/plot
Ground pearls/plot, Eggs, 56 DAA3 [1]: 8.5 abc ground pearls/plot
NDVI, 56 DAA3 [1]: 7.5
density of ground pearl adults (in words) [1, 4]: significantly reduced
density of ground pearl eggs (in words) [1, 4]: significantly reduced
Turf vigor (0-10), Pre-spray [2]: 5.1
Ground pearls/plot, Adults, Pre-spray [2]: 6.0 ground pearls/plot
Ground pearls/plot, Eggs, Pre-spray [2]: 3.0 ground pearls/plot
density of ground pearl eggs and adults (in words) [2]: significantly reduced
turf vigor (in words) [2]: significantly improved
Turf vigor (0-10), 56 DAA3 [3]: 6.0 a
